12 molecules from patent US20250042922A1, “KRAS MODULATING COMPOUNDS” (priority 2023, published 2025) can be followed below.

In general, pEC50 refers to the negative decadic logarithm of the EC50, by convention in mol/L.

Test [1] has as its system cellular pERK in Kuramochi (WT KRAS) cells. The test is described as follows: Cell based pERK assay, Kuramochi. The settings on record: Kuramochi (WT KRAS), 2 hours incubation, HTRF phospho-ERK1/2; read-out: Kuramochi pERK EC50. On the procedure:
(§1) Compounds were tested in a 384-well assay format for their ability to inhibit cellular pERK in Kuramochi (WT KRAS), MIA-PaCa-2 (KRAS-G12C), ASPC-1 (KRAS G12D), and NCI-H441 (KRAS-G12V) cell-lines. Compounds were serially diluted (1:3) in DMSO. On day −1, 80 μL of cells were plated per well in the 384 well tissue-culture plates (Greiner: Cat #781080) to seed 5000 cells per wells of AsPC-1 or 7500 cells of MIA-PaCa-2, NCI-H441, and Kuramochi cell lines in RPMI (Corning: Cat #10-040-CM) with 10% fetal bovine serum (FBS) (HyClone: Cat #SH30071-03) and 1× penicillin-streptomycin-glutamate (PSG) (Corning: Cat #30-009-CI) for […] and Kuramochi cell lines and DMEM (Corning: Cat #15-018-CM) with 10% FBS and 1×PSG for MIA-PaCa-2 cell line. The plates were then incubated overnight at 37° C. and 5% CO2. On day 0, 400 nL of compound/well was added into the cell plates and mixed 5 times by pipetting using a Beckmann Biomek FX. The cell plates were then incubated for 2 hours at 37° C. and 5% CO2. HTRF Advanced Phospho-ERK1/2 (THR202/TYR204) Detection Kits (PerkinElmer: Cat #64AERPEG) were used to prepare the lysis and detection solution according to manufacturer protocol. Following the 2 hour incubation, 70 μL of medium was aspirated from the plates and 10 uL of lysis and detection solution was added to the plates using a Biotek EL406 washer and dispenser. Plates were sealed and stored overnight at room temperature. HTRF ratio (665 nm/615 nm) was read by Envision multimode reader (PerkinElmer) the next day. The TR-FRET ratios were normalized to a positive (saturating concentration of known inhibitor) and negative (DMSO) control and plotted against the log of compound concentration.
Background: Time-resolved FRET reads energy transfer from a long-lived donor to a nearby acceptor.

In test [2] the test system is cellular pERK in MIA-PaCa-2 (KRAS-G12C) cells. The test is described as follows: Cell based pERK assay, MIA-PaCa-2. To be noted: Homo sapiens; MIA-PaCa-2 (KRAS-G12C), 2 hours incubation, HTRF phospho-ERK1/2; read-out: MIAPaCa2 pERK EC50. How it is done: as §1
Test [3] relates to cellular pERK in NCI-H441 (KRAS-G12V) cells. Description: Cell based pERK assay, NCI-H441. To be noted: Homo sapiens; NCI-H441 (KRAS-G12V), 2 hours incubation, HTRF phospho-ERK1/2; read-out: H441 PERK EC50. On the procedure: as §1
Test [4] deals with cellular pERK in ASPC-1 (KRAS G12D) cells. Description: Cell based pERK assay, ASPC-1. The settings on record: Homo sapiens, ASPC1; ASPC-1 (KRAS G12D), 2 hours incubation, HTRF phospho-ERK1/2; read-out: AsPC1 pERK EC50. On the procedure: as §1

pEC50: −log10 of the molar value.

For the molecule `C#Cc1c(F)ccc2cc(O)cc(-c3nc4c5c(nc(OC[C@@]67CCCN6C[C@H](F)C7)nc5c3F)N3C[C@@]5(F)CC[C@H](N5)[C@H]3CC4)c12` [Example 1-1, 4-((5aR,6S,9S)-1,9-difluoro-12-(((2R,7aS)-2-fluorotetrahydro-1H-pyrrolizin-7a(5H)-yl)methoxy)-4,5,5a,6,7,8,9,10-octahydro-3,10a,11,13,14-pentaaza-6,9-methanonaphtho[1,8-ab]heptalen-2-yl)-5-ethynyl-6-fluoronaphthalen-2-ol], the pEC50 in test [1] is 8.57; in test [2] it was 8.49; in test [3], 8.31; in test [4] it was 7.42.

On to `CCc1c(F)ccc2cc(O)cc(-c3nc4c5c(nc(OC[C@@]67CCCN6C[C@H](F)C7)nc5c3F)N3C[C@@]5(F)CC[C@H](N5)[C@H]3CC4)c12` [Example 2-1, 4-((5aR,6S,9S)-1,9-difluoro-12-(((2R,7aS)-2-fluorotetrahydro-1H-pyrrolizin-7a(5H)-yl)methoxy)-4,5,5a,6,7,8,9,10-octahydro-3,10a,11,13,14-pentaaza-6,9-methanonaphtho[1,8-ab]heptalen-2-yl)-5-ethyl-6-fluoronaphthalen-2-ol], for which the negative logarithm of the EC50 (pEC50) in test [1] was 8.85; in test [2], 8.52; in test [3], 8.35; in test [4] it was 7.26.

As for `C#Cc1c(F)ccc2cc(O)cc(-c3nc4c5c(nc(OC[C@@]67CCCN6C[C@H](F)C7)nc5c3F)N3C[C@@]5(F)CC[C@](F)(N5)[C@H]3CC4)c12` [Example 3-1, 5-ethynyl-6-fluoro-4-((5aR,6R,9S)-1,6,9-trifluoro-12-(((2R,7aS)-2-fluorotetrahydro-1H-pyrrolizin-7a(5H)-yl)methoxy)-4,5,5a,6,7,8,9,10-octahydro-3,10a,11,13,14-pentaaza-6,9-methanonaphtho[1,8-ab]heptalen-2-yl)naphthalen-2-ol], the negative-log EC50 (pEC50) in test [1] is 8.95; in test [2], 9.05; in test [3] it was 8.90; in test [4] it was 8.49.

On to `C#Cc1c(F)ccc2cc(O)cc(-c3nc4c5c(nc(OC[C@@]67CCCN6C[C@H](F)C7)nc5c3F)N3C[C@@]5(F)CC[C@](F)(N5)[C@H]3CCC4)c12` [Example 4-1, 5-ethynyl-6-fluoro-4-((6aR,7R,10S)-1,7,10-trifluoro-13-(((2R,7aS)-2-fluorotetrahydro-1H-pyrrolizin-7a(5H)-yl)methoxy)-5,6,6a,7,8,9,10,11-octahydro-4H-3,11a,12,14,15-pentaaza-7,10-methanocyclohepta[4,5]cycloocta[1,2,3-de]naphthalen-2-yl)naphthalen-2-ol], for which the pEC50 was 8.85 in test [1], 9.31 in test [2], 9.77 in test [3] and 8.87 in test [4].

For the molecule `C#Cc1c(F)ccc2cc(N)cc(-c3nc4c5c(nc(OCC67CCCN6CCC7)nc5c3F)N3C[C@@]5(F)CC[C@](F)(N5)[C@H]3CCC4)c12` [Example 4-6, 5-ethynyl-6-fluoro-4-((6aR,7R,10S)-1,7,10-trifluoro-13-((tetrahydro-1H-pyrrolizin-7a(5H)-yl)methoxy)-5,6,6a,7,8,9,10,11-octahydro-4H-3,11a,12,14,15-pentaaza-7,10-methanocyclohepta[4,5]cycloocta[1,2,3-de]naphthalen-2-yl)naphthalen-2-amine], the negative logarithm of the EC50 (pEC50) in test [1] is 8.70; in test [2], 8.87; in test [3] it was 8.19; in test [4] it was 7.51.

Consider `C#Cc1c(F)ccc2cc(O)cc(-c3nc4c5c(nc(OCC67CCCN6CCC7)nc5c3F)N3C[C@@]5(F)CC[C@](F)(N5)[C@@H]3[C@@H](C)C4)c12` [Example 4-10, 5-ethynyl-6-fluoro-4-((5S,5aS,6R,9S)-1,6,9-trifluoro-5-methyl-12-((tetrahydro-1H-pyrrolizin-7a(5H)-yl)methoxy)-4,5,5a,6,7,8,9,10-octahydro-3,10a,11,13,14-pentaaza-6,9-methanonaphtho[1,8-ab]heptalen-2-yl)naphthalen-2-ol], for which the pEC50 in test [1] is 7.94; in test [2], 9.61; in test [3] it was 8.49; in test [4] it was 8.23.

In the case of `C#Cc1c(F)ccc2cc(O)cc(-c3nc4c5c(nc(OC[C@@]67CCCN6C[C@H](F)C7)nc5c3F)N3C[C@@]5(F)CC[C@H](N5)[C@H]3C=C4C)c12` [Example 4-15, 4-((5aR,6S,9S)-1,9-difluoro-12-(((2R,7aS)-2-fluorotetrahydro-1H-pyrrolizin-7a(5H)-yl)methoxy)-4-methyl-5a,6,7,8,9,10-hexahydro-3,10a,11,13,14-pentaaza-6,9-methanonaphtho[1,8-ab]heptalen-2-yl)-5-ethynyl-6-fluoronaphthalen-2-ol], the negative-log EC50 (pEC50) is 8.35 in test [1], 8.39 in test [2], 7.66 in test [3] and 7.01 in test [4].

Consider `C#Cc1c(F)ccc2cc(O)cc(-c3nc4c5c(nc(OC[C@@]67CCCN6C[C@H](F)C7)nc5c3F)N3C[C@@]5(F)CC[C@](F)(N5)[C@H]3CO4)c12` [Example 4-16, 5-ethynyl-6-fluoro-4-((5aR,6R,9S)-1,6,9-trifluoro-12-(((2R,7aS)-2-fluorotetrahydro-1H-pyrrolizin-7a(5H)-yl)methoxy)-5a,6,7,8,9,10-hexahydro-5H-4-oxa-3,10a,11,13,14-pentaaza-6,9-methanonaphtho[1,8-ab]heptalen-2-yl)naphthalen-2-ol], for which the negative logarithm of the EC50 (pEC50) in test [1] is 6.83; in test [2], 6.80; in test [3] it was < 6.11; in test [4] it was < 6.00.

In the case of `C#Cc1c(F)ccc2cc(N)cc(-c3nc4c5c(nc(OC[C@@]67CCCN6C[C@H](F)C7)nc5c3F)N3C[C@@]5(F)CC[C@](F)(N5)[C@@H]3CC4)c12` [Example 4-19, 5-ethynyl-6-fluoro-4-((5aS,6R,9S)-1,6,9-trifluoro-12-(((2R,7aS)-2-fluorotetrahydro-1H-pyrrolizin-7a(5H)-yl)methoxy)-4,5,5a,6,7,8,9,10-octahydro-3,10a,11,13,14-pentaaza-6,9-methanonaphtho[1,8-ab]heptalen-2-yl)naphthalen-2-amine], the negative logarithm of the EC50 (pEC50) in test [1] was 9.04; in test [2], 9.63; in test [3], 8.97; in test [4], 8.29.

Regarding `C#Cc1c(F)ccc2cc(O)cc(-c3nc4c5c(nc(OC[C@@]67CCCN6C[C@H](F)C7)nc5c3F)N3C[C@@]5(F)CC[C@](F)(N5)[C@@H]3CC4)c12` [Example 4-20, 5-ethynyl-6-fluoro-4-((5aS,6R,9S)-1,6,9-trifluoro-12-(((2R,7aS)-2-fluorotetrahydro-1H-pyrrolizin-7a(5H)-yl)methoxy)-4,5,5a,6,7,8,9,10-octahydro-3,10a,11,13,14-pentaaza-6,9-methanonaphtho[1,8-ab]heptalen-2-yl)naphthalen-2-ol], the negative-log EC50 (pEC50) in test [1] was 8.75; in test [2], 10.09; in test [3], 9.21; in test [4], 9.13.

As to `Oc1cc(-c2nc3c4c(nc(OCC56CCCN5CCC6)nc4c2F)N2C[C@@]4(F)CC[C@](F)(N4)[C@H]2CCC3)c2c(Cl)c(F)ccc2c1` [Example 4-27, 5-chloro-6-fluoro-4-((6aR,7R,10S)-1,7,10-trifluoro-13-((tetrahydro-1H-pyrrolizin-7a(5H)-yl)methoxy)-5,6,6a,7,8,9,10,11-octahydro-4H-3,11a,12,14,15-pentaaza-7,10-methanocyclohepta[4,5]cycloocta[1,2,3-de]naphthalen-2-yl)naphthalen-2-ol], the pEC50 is 8.59 in test [1], 8.52 in test [2], 7.86 in test [3] and 7.19 in test [4].

In the case of `C#Cc1c(F)ccc2cc(N)cc(-c3nc4c5c(nc(OCC67CCCN6CCC7)nc5c3F)N3C[C@@]5(F)CC[C@](F)(N5)[C@@H]3CC4)c12` [Example 4-34, 5-ethynyl-6-fluoro-4-((5aS,6R,9S)-1,6,9-trifluoro-12-((tetrahydro-1H-pyrrolizin-7a(5H)-yl)methoxy)-4,5,5a,6,7,8,9,10-octahydro-3,10a,11,13,14-pentaaza-6,9-methanonaphtho[1,8-ab]heptalen-2-yl)naphthalen-2-amine], the pEC50 in test [1] is 8.48; in test [2] it was 9.29; in test [3] it was 8.56; in test [4], 7.68.
